In patent US9566341B1, “Compounds including Cox inhibitor moiety and enhanced delivery of active drugs using same” (University of Kentucky Research Foundation, priority 2011, dated 2017):
Values joined by “and” are separate entries in the source; they are usually repeats but may differ in a detail not shown here. Identical values can stand only once. Counter-ions that a name gives are not always drawn.

Key:
[1] = Chemical stability in 0.3M acetate buffer pH 5.0 at 32° C.; type: physicochemical
Excerpt: The chemical stability of the prodrugs to hydrolysis and solvolysis at the appropriate temperatures will be determined by measuring concentrations over time in the buffers and solvents used in the solubility and diffusion studies. Chemical degradation rate constants will be important in distinguishing enzymatic degradation from non-enzymatic degradation. Codrug enzymatic metabolism rate constants can also be determined in skin homogenates, to ascertain if the values are useful in the QSPR multiple regression analysis. The kinetics of codrug enzymatic degradation in skin homogenates will be done using abdominal plastic surgery samples. Enzymatic reaction rates will be determined at several different codrug concentrations. The skin is homogenized (Polytron tissue homogenizer and ground glass homogenizer fitted with a glass pestle) in HEPES-buffered Hanks' balanced salt solution and the supernatant is obtained. The enzymatic hydrolysis rates are determined in the homogenate at 37° C. The codrug and its metabolites will be obtained by solid-phase extraction, or another appropriate extraction method. Naltrexone and any other metabolite formed will be assayed by HPLC and expressed as moles of metabolite per minute per milligram of protein. Protein concentrations in the supernatant will be measured by the Bradford method. Controls containing only codrug and HEPES-buffered Hanks' balanced salt solution at 37° C. will also be monitored to determine non-enzymatic hydrolysis.
Chemical and enzymatic stability was determined for the codrugs. For chemical stability studies, the codrug was put in prewarmed 0.3M acetate buffer pH 5.0 after solubilization in <5% ACN, if required, at 32° C. in an incubator. Samples were withdrawn at regular intervals and injected into the HPLC after appropriate dilutions. Enzymatic stability studies are important for estimation of conversion of codrugs in the plasma. […] All stability data was analyzed using pseudo first order kinetics. […]

[2] = In vitro diffusion study across microneedle-treated full thickness Yucatan miniature pig skin; type: in vitro ADME; conditions: for naltrexol flux: 10% PG containing saturated donor formulation; for flux enhancement of salt form over free base form: NTX flux, p<0.005; for flux of naltrexone from the hydrochloride salt form: donor in 0.3M acetate buffer pH 5.0, MN treated skin, n=4
Experimental: For all in vitro experiments female Yucatan minipig skin (6 months old) were used. Skin sections were obtained by removing the subcutaneous fatty tissue by scalpel dissection, and were stored at −20° C. A PermeGear flow-through (In-Line, Riegelsville, Pa., USA) diffusion cell system was used for the skin permeation studies.
The skin was pierced 20 times with an array containing 5 MN (i.e., to make a total of 100 individual and non-over lapping piercings) before mounting the skin in the diffusion cell for the treatment group. The insertion of MN into skin was carried out manually by applying gentle finger pressure followed by instantaneous removal. MN's were distributed evenly within the 0.95 cm^2 area of skin and could easily be visualized after each 5 MN insertion, as to prevent reapplication in the same area. Single MN array of 5 were used simply out of ease for the experimental procedure. If any damage to an MN section was observed the section was replaced. […] Untreated skin samples were simply placed in the diffusion cells. Diffusion cells were kept at 32° C. using a circulating water bath. Data were collected using skin from a single pig 3-4 cells for the MN treated formulations.
The physiological receiver solution was water adjusted to pH 7.4 containing 20% ethanol, and the flow rate was adjusted to 1.5 ml/h. Each cell was charged with 0.25 ml of the donor in the donor compartment of the chamber. The diffusion cells were covered with a stopper to prevent evaporation. Samples were collected from the receiver compartment in six-hour increments over 48 h or for the length of the treatment. All samples were stored at 4° C. until analyzed by HPLC.
The in vitro permeation experiments were carried out to determine the transdermal flux of the parent drugs and the codrug, permeation coefficients as well as the concentration of the drug molecules in the skin at the end of the study. For all in vitro experiments Yucatan miniature pig (YP) skin was used. Full thickness skin was obtained by removing the subcutaneous fatty tissue by scalpel dissection, and stored at −20° C. A PermeGear flow-through (In-Line, Riegelsville, Pa., USA) diffusion cell system was used for the skin permeation studies. […] The skin was pierced 20 times with a 5 MN array (making 100 individual and non-over lapping piercings) before mounting the skin in the diffusion cell. MN pores were distributed evenly within the 0.95 cm^2 area of skin. Untreated skin samples were mounted directly onto the diffusion cells. The setup was maintained at 32° C. using a circulating water bath. Data collected using a minimum of 3-4 cells per treatment group. The receiver solution was water alkalified to pH 7.4 containing 20% ethanol at 37° C. Gentamycin sulfate (50 mg/L) was added to the receiver for 7 day studies as an antibacterial agent. The receiver flow rate was adjusted to 1.5 ml/h to maintain skin conditions. Each cell was charged with 0.25 ml of the donor and the diffusion cells were covered with a stopper to prevent evaporation of formulation. Samples were collected at regular increments over 48 hours or for the length of the treatment. Drug was concentrated 10 fold by evaporating 1 ml of the collected sample under nitrogen and reconstituting in 100 μl of ACN for quantification. All samples were stored at 4° C. until analyzed by HPLC. The skin was removed at the end of the study and the treatment area was diced into small pieces using a scalpel after removing all excess drugs from top of the skin. Drug was extracted out by immersing the skin pieces in ACN overnight in a shaker water bath at 32° C. Samples were injected into the HPLC after appropriate dilution for quantitative analysis. The donor was also removed and quantified at the end of the study by direct injection onto HPLC after suitable dilution using ACN. All data was analyzed using Fick's first law of diffusion. […]

[3] = system: hairless guinea pig micropores; test: In vivo micropore visualization by gentian violet/India ink staining after MN treatment; conditions: for time the pores stay open after MN treatment: codrug gel under occlusion, patch changed at 3.5 days
Excerpt: The patches were removed at predetermined time points and the site was cleaned with sterile gauze. Gentian violet/India ink was applied as the dyeing agent at the MN treated sites and allowed to dry before excess dye was removed with ethanol and gauze. Both the dyes stain the viable epidermis but not the intact SC. […] The donor was removed from the top of the skin at the end of the study and analyzed by direct injection onto HPLC after suitable dilution using ACN.
All animal experiments were approved by the University of Kentucky IACUC. A proof of concept in vivo experiment was carried out. 4% w/w gels were prepared with the hydrochloride salt form of the codrug. Gels were formulated by dissolving 4% codrug salt in PG: buffer at pH 5.0=10:90 and 3.0% hydroxyethylcellulose (HEC) polymer (required to have a gel formulation). Polymer was dissolved over a 30 minute period to obtain a homogenous gel. The solution was stirred until a viscous gel resulted and then left at room temperature for 1½ to 2 hours to remove bubbles and ensure complete polymerization. The gel was saturated with excess solid and therefore was cloudy. MN treated animals were first cleaned topically with isopropyl alcohol, and 50 MN array was applied twice mutually perpendicular to each other to give a total of 100 pores at each site. 0.3 mL gel doses were applied to the dorsal region of the HGP. After application of the gel the skin was occluded with the occlusive patch and biocclusive tape was applied to prevent evaporation of the formulation. The patch was changed with new formulation at 3.5 days such that more than 50% intact codrug was always present in formulation. […] The patches were removed to obtain data at successive 24 h time intervals.
The patches were removed at predetermined time points and the site was cleaned with sterile gauze. Gentian violet/India ink was applied as the dyeing agent at the MN treated sites and allowed to dry before excess dye was removed with ethanol and gauze. Both the dyes stain the viable epidermis but not the intact SC.

[4] = Pharmacokinetic study with codrug HCl salt gel patches after MN treatment; type: in vivo, hairless guinea pig
Experimental: Microneedle treatment at each patch site contained 100 micropores created by a 1 cm^2 50 needle stainless steel array rotated 90° and inserted twice. […] Plasma samples were obtained from a jugular catheter over seven days and analyzed for drug concentration by LC/MS (Methods).
(§1) Hairless IAF guinea pigs (Charles River) weighing 350-650 g were used for these studies. All animal studies were in accordance with the institutional guidelines and approved by the University of Kentucky IACUC. Surgical procedure was performed to canulate the jugular vein. Blood samples (0.3 mL) were drawn from the jugular vein at regular time intervals for the time studied. MN treated animals were first cleaned topically with isopropyl alcohol, and two 50 MN arrays were then manually applied to each dose site. For MN treated GPs, four 0.3 mL gel doses were applied to the dorsal region of the hairless guinea pigs at 4 sites to obtain steady state plasma levels. […] The blood samples were immediately centrifuged at 10,000×g for 3 min; plasma was separated and stored at −70° C. until analysis.
as §1, with “70 g C” for “−70° C.”

[5] = Concentration of saturated donor solution; type: physicochemical; conditions: hydrochloride salt; 0.3M acetate buffer at pH 5.0
Experimental: Solubility studies are carried out by equilibrating large excesses of each drug with the solvent studied. The experiments will be done at skin surface temperature (32° C.). To hasten the attainment of equilibrium, each slurry will be continuously shaken or stirred. Samples will be taken, filtered with an appropriate filter for the solvent, measured with respect to volume, and either assayed directly by HPLC or evaporated to dryness and reconstituted for assay. Binding of the compounds to the filter will be checked to eliminate the possibility of drug adsorption on the filter and/or filter casing. All toxic solvents and other chemicals will be handled with caution, and fume hoods will be used when appropriate.
In vitro experiments. The goal of the first set of in vitro experiments was to estimate flux and skin concentration of the base form of the codrug.

[6] = Micromedex 1.0, as fraction; cited from earlier work
[7] = listed as Compound 2U hydrochloride salt

O=C(Cc1ccccc1Nc1c(Cl)cccc1Cl)OC1CCC2(O)C3Cc4ccc(O)c5c4C2(CCN3CC2CC2)C1O5 (stereo not drawn) [Compound 2B]
Chemical stability [1]: 56.3 ± 9.5 days | naltrexol flux [2]: approximately 0.29±0.09 nmol/cm^2/h

O=C(Cc1ccccc1Nc1c(Cl)cccc1Cl)O[C@@H]1CC[C@@]2(O)[C@H]3Cc4ccc(O)c5c4[C@@]2(CCN3CC2CC2)C1O5 (stereo partly drawn) [Compound 2B]
half-life ([1]; buffer pH 5.0, 32° C.): ~56.3 days

O=C1CC[C@@]2(O)[C@H]3Cc4ccc(O)c5c4[C@@]2(CCN3CC2CC2)[C@H]1O5 [NTX HCl, Naltrexone Hydrochloride, reference compound]
pore visualization at day 4 (96 h) ([3]; MN followed by NTX HCl gel under occlusion): cannot be visualized

Oc1ccc2c3c1O[C@H]1[C@H](O)CC[C@@]4(O)[C@@H](C2)N(CC2CC2)CC[C@]314 [NTXOL, 6-β-Naltrexol, reference compound]
naltrexol flux [2]: 3.07±0.27 nmol/cm^2/h

Cl.O=C(Cc1ccccc1Nc1c(Cl)cccc1Cl)Oc1ccc2c3c1O[C@H]1C(=O)CC[C@@]4(O)[C@@H](C2)N(CC2CC2)CC[C@]314 [codrug salt]
time the pores stay open after MN treatment [3, 7]: ≤ 7 days | time the pores stay open after MN treatment ([3]; listed as HCl salt form of the compound): ≤ 7 days | Css estimated from Jss*A=Css*Cl ([4]; 4 patches, 400 MN treatments): around 1 ng/ml | intact codrug in plasma samples ([4]; LC/MS, over seven days): not detected | micropore staining with India ink ([4]; days 1, 4, 5, 6, and 7): Significant micropore staining | time at which pores closed ([4]; one guinea pig of four): 6 days | flux of NTX from the codrug in hairless guinea pig model ([4]; salt form, 10% PG formulation): not high enough to quantify | duration of significant NTX plasma levels ([4]; three out of the four guinea pigs, four patches, single MN pretreatment): 7 days | flux enhancement of salt form over free base form [2]: 13 fold | flux enhancement of salt form over free base form [2, 7]: about 13 fold | flux of naltrexone from the hydrochloride salt form [2]: 5.42±1.5 nmol/(cm^2/h) and 5.5 nmol/(cm^2/h) | flux of naltrexone from the hydrochloride salt form [2, 7]: 5.42±1.5 nmol/(cm^2/h) | flux at higher concentrations of PG ([2]; salt form, 25% and 50% PG, saturated donor): flux decreased significantly | flux of 10% PG containing formulation versus aqueous formulation ([2]; salt form, saturated donor, one way ANOVA): no significant difference in flux | concentration of donor solution [5]: 39300 µg/mL

O=C(O)Cc1ccccc1Nc1c(Cl)cccc1Cl [diclofenac, Diclofenac]
oral bioavailability [6]: 0.55
